Source: US10537611B2, “Methods of treating lung cancer” (Five Prime Therapeutics, Inc., priority 2011, dated 2020)

Assays:
[1] = system: FGF-2 plus VEGF-A induced angiogenesis; assay: Matrigel plug assay, FGF-2 plus VEGF-A induced angiogenesis; type: in vivo, mouse; details: C57BL/6 mice; 15 or 45 mg/kg
Description: Recombinant human FGF-2 (final concentration 250 ng/ml; Peprotech) and/or recombinant human VEGF-A (final concentration 100 ng/ml; Peprotech) were added to matrigel (BD Biosciences, Franklin Lakes, N.J.) with sodium heparin (2 units/ml; Sigma). FGF-2 and/or VEGF-A containing matrigel plugs (one per animal) were implanted subcutaneously in the abdomen region of C57BL/6 mice (Charles River, Wilmington, Mass.). FGFR1-ECD.339-Fc was administered by tail vein injection on days 1, 4, and 7 post-matrigel implantation. On day 9, plugs were excised and processed for hematoxylin and eosin (H&E) staining. Digital images of the stained matrigel sections were generated using a Retiga 2000R digital camera (QImaging, Burnaby, BC). Image analysis was performed using Image-Pro Plus 5.1 (Media Cybernetics Inc., Silver Spring, Md.). Neovascularization was defined as the cellular response in the Matrigel plugs, consisting of newly formed blood vessels and migrated cells.

A498 xenograft model = assay: A498 xenograft tumor growth inhibition; type: in vivo, mouse; details: Renal A498; IP 15 mg/kg BIW; non-amplified; P ns
Description: (§1) Percentage tumor growth inhibition by FGFR1-ECD.339-Fc was determined by area-under-the-curve (AUC) analysis of xenograft growth curves treated with FGFR1-ECD.339-Fc compared to albumin control. […] The difference in FGFR1-ECD.339-Fc-mediated xenograft inhibition between FGFR1 gene amplified and non-amplified lung cancer xenograft models was statistically significant (P=0.0333).
(§2) Also shown in Table 5 are the dosing schedule for FGFR1-ECD.339-Fc in a mouse xenograft model, the percent tumor growth inhibition (TGI (%)) and the statistical significance of the tumor growth inhibition (P Value), as well as whether the FGFR1 gene is amplified in the cell line.
(§3) An exemplary xenograft experiment is as follows. For Caki-1 and MSTO-211H, five million cells were implanted subcutaneously over the right flank of SCID mice (N=10 per group). […] Representative tumor growth curves are shown for a renal cancer, Caki-1, (A), and mesothelioma, MSTO-211H, (B) xenograft cancer model. […] In the MSTO-211H mesothelioma model, FGFR1-ECD.339-Fc administration reduced tumor growth (FIG. 16b) by 64% (P<0.0001).

[2] = system: lung cancer cell lines with FGFR1 gene amplification; assay: Tritiated thymidine incorporation, FGFR1 gene amplified lung cancer cell lines (average); type: cell-based, human; details: across all FBS concentrations, vs control ECD-Fc
Description: To determine the impact of FGFR1-ECD.339-Fc on lung cancer cell lines in tissue culture, cells were plated in a Microtest™ 96-well tissue culture plate (Becton Dickenson, Franklin Lakes, N.J.) at a density of 5×10^3 cells/well in medium containing 10%, 1% or 0.1% FBS in the presence or absence of 15 μg/ml FGFR1-ECD.339-Fc (SEQ ID NO: 6) or an unrelated ECD-Fc fusion protein (as a negative control). Plates were incubated at 37° C. at 5% CO2 for 4 days and then assayed to determine the impact of FGFR1-ECD.339-Fc on cell number and proliferation.
To determine the impact of FGFR1-ECD.339-Fc on cell proliferation the tritiated thymidine ([3H]-TdR) incorporation assay was employed. […] After 16-h exposure, tritiated thymidine incorporation was assessed. […] Thymidine incorporation was determined as counts per minute (cpm) on a Topcount NXT (PerkinElmer) scintillation counter. Results were expressed as cpm/well.
The impact of FGFR1-ECD.339-Fc on cell proliferation as assessed by tritiated thymidine incorporation was also compared between FGFR1 gene amplified and non-amplified lung cancer cell lines (FIG. 4). An average percent reduction in cell proliferation with FGFR1-ECD.339-Fc addition was determined across all FBS concentrations examined for each FGFR1 gene amplified cell line and the panel of non-FGFR1 gene amplified cell lines indicated above. […]

Du145 xenograft model = assay: Du145 xenograft tumor growth inhibition; type: in vivo, mouse; details: Prostate Du145; IP 0.15 mg/kg 3×/w; non-amplified; P ns
Description: as §1, §2, §3

HCT116 xenograft model = assay: HCT116 xenograft tumor growth inhibition; type: in vivo, mouse; details: Colon HCT116; IP 15 mg/kg BIW; FGFR1 non-amplified; P ns
Description: as §1, §2, §3

Colo201 xenograft model = assay: Colo201 xenograft tumor growth inhibition; type: in vivo, mouse; details: Colon Colo201; IP 15 mg/kg BIW; non-amplified; P ns
Description: as §1, §2, §3

For “FGFR1-ECD.339-Fc: human FGFR1 extracellular domain ending at amino acid 339 fused to an Fc; SEQ ID NO: 6 (mature form), SEQ ID NO: 5 with signal peptide”, the “in vivo angiogenesis, matrigel plug with FGF-2 plus VEGF-A” value [1] was “completely blocked”, the “TGI (%)” value (A498 xenograft model) was 7% and the “average reduction in CPM (tritiated thymidine incorporation)” value [2] was 62.75%. The “TGI (%)” value (Du145 xenograft model) was 31%, the “TGI (%)” value (HCT116 xenograft model) was 0% and the “TGI (%)” value (Colo201 xenograft model) was 0%.
